Data published in paper PMC7239831, “Suitability of Artificial Membranes in Lipolysis-Permeation Assays of Oral Lipid-Based Formulations” (Pharmaceutical Research, 2020).

Columns and labels:
[1] = In vitro lipolysis-permeation assay of fenofibrate-loaded LBFs in the ENA device (porcine pancreatin); type: in vitro ADME
Method: Three formulations representing LFCS types IIIA-MC, IIIA-LC (long chain fatty acid component), and type IV (Table I) were assayed for their performance using artificial membranes in the ENA device. No more than one week before the assay, excipients were heated to 37°C before being weighed into a glass vial. The vial was capped with argon, vortexed, and then shaken overnight (450 rpm, 37°C). The formulations were then loaded with fenofibrate (80 mg/g) in the same manner, and shaken until complete dissolution.
The loaded formulations were weighed separately and then dispensed into ENA donor compartments (Fig. 1b) that had been prefilled with digestion medium spiked with LY to 10 μM (0.1% DMSO). Samples were taken from both compartments during dispersion (0–10 min) and digestion (10–100 min). Samples from the donor compartment were immediately filtered through a hydrophilic nylon syringe filter (Whatman PuraDisc 13, pore size 0.1 μm) to separate precipitates and oil droplets from fenofibrate in free solution and in colloidal aggregates, using the same procedures as those described in Juenemann et al. and Stillhart et al. ([28],[29]). The syringe filters were then flushed through with room temperature acetonitrile to recover precipitated fenofibrate. […] Phases were instead separated through centrifugation (37°C, 21,000 g for 15 min) for these samples. Receiver compartment samples were then quantified using UPLC-MS, and donor samples using HPLC-UV.
Fenofibrate was analyzed using a UV-DAD coupled HPLC (1290 Infinity, Agilent Technologies) with a Zorbax Eclipse XDB-C18 column (4.6 × 100 mm, Agilent Technologies) kept at 40°C (injection volume 20 μl). The mobile phase consisted of sodium acetate buffer (25 mM, pH 5.0) in acetonitrile solution (2:8 v/v) with isocratic flow (1 ml/min). UV absorbance was monitored at a wavelength of 287 nm. The retention time was 3.32 min. Sample preparation consisted of 100x dilution in mobile phase and a centrifugation step (21,000 g, 15 min, 25°C) to purify the matrix. […]

[2] = set-up: method as in PMID 23500116, doi:10.1016/j.jddst.2016.06.013, PMID 28826878; conditions: cited from earlier work
Caco-2 monolayer = assay: Caco-2 based lipolysis-permeation assay in ENA (data re-analyzed from Keemink et al.); conditions: average over formulations
[3] = Integrity assay with static digest matrix (LY mass transfer); type: in vitro ADME; conditions: GIT-0 membranes
Method: Six samples of 4 ml were taken during dispersion and digestion phases of single-compartment in vitro lipolysis (Fig. 1a) of a formulation over a period of 40 min. The formulation was of type IIIB-MC (medium chain length triglyceride component, 8–10 carbons) according to the Lipid Formulation Classification System (LFCS) ([27]), see Table I for composition. […] To visualize membrane integrity, Lucifer Yellow (LY) in DMSO solution was added to each sample to a final LY concentration of 10 μM and 0.1% DMSO. LY is highly hydrophilic; its permeation through intact lipid membranes should therefore be negligible. The sample tubes were then vortexed, and shaken at 450 rpm at 37°C until further use.
Digestion samples were dispensed (1.2 ml) into the donor compartments of Transwell inserts treated to form artificial membranes. Negative controls comprised only blank digestion medium or lipolysis buffer (both containing LY, 10 μM) in the donor compartment. Positive controls were untreated inserts composed of naked polycarbonate filters, or GIT-0 solution added to pre-wet filters (disrupts membrane formation). The receiver compartments contained 2 ml of either plain phosphate buffer (PB, 10 mM), Acceptor Sink Buffer (20 mM HEPES, 1% w/v SDS), or PB supplemented with 4% w/w bovine serum albumin (BSA). All receiver buffers were adjusted to pH 7.40.
From examination of mass transfer profiles, membrane damage was evaluated by Area Under the Curve (AUC) values of LY mass transfer over time. The criteria were that an LY AUC > 10 nmol min cm^−2 was considered to indicate major membrane disruption, while an LY AUC < 1 nmol min cm^−2 was considered to indicate an intact membrane.
LY presence was detected using fluorescence (Spark or Safire^2 plate readers, Tecan, Austria) at 428 and 536 nm wavelength for excitation and emission, respectively. Samples were diluted 1:2 in ice-cold acetonitrile and centrifuged (4°C, 2465 g for 20 min) to precipitate protein content.

[4] = Integrity assay under dynamic digestion conditions (LY mass transfer); type: in vitro ADME; conditions: LiDo on PVDF; up to two hours
Method: HDM, GIT-0 and LiDo membranes were subjected to in situ lipolysis of the IIIB-MC LBF in a 6-well culture plate format. Transwell inserts (diameter of 24 mm) were used for polycarbonate filters, and inserts were made in-house to hold the PVDF filters (diameter of 25 mm). For these lipolysis experiments, a modified digestion medium with greater buffering capacity was used. The digestion medium contained 200 mM Tris-maleate in these experiments to maintain pH within 0.3 units of the initial value of the lipolysis buffer (pH 6.5) over one hour of digestion (Table S2, Supplementary Material), since no autotitration could be used in the setup. LBF was weighed into a glass tube, and 10 ml of this modified digestion medium spiked with 10.3 μl of LY in DMSO solution (10 mM) was added and vortexed. […]
GIT-0 and LiDo membranes were also evaluated in a large-scale (75 mm diameter) in-house developed lipolysis-permeation device named “ENA” ([19]) in order to explore whether these two lipid mixtures with theoretically similar compositions and production methods also yielded similar results. […]
LY presence was detected using fluorescence (Spark or Safire^2 plate readers, Tecan, Austria) at 428 and 536 nm wavelength for excitation and emission, respectively. […]

For `CC(C)OC(=O)C(C)(C)Oc1ccc(C(=O)c2ccc(Cl)cc2)cc1` [fenofibrate], the “Expected flux in vivo relative to flux over LiDo/Caco-2” value ([1]; based on expected permeability in human small intestine) is given as 10 fold, the “Flux of fenofibrate over LiDo relative to flux of cinnarizine over Permeapad” value ([1]; under comparable conditions, average, Permeapad data ref 40) is given as 334 fold and the “Permeability (in words)” value [2] is given as “highly permeable”. For the same compound, the “Caco-2 permeability relative to LiDo after adjusting for filter porosity (ε)” value (Caco-2 monolayer) was 1.8 fold and the “Ratio between Caco-2 and LiDo permeability” value (Caco-2 monolayer; uncorrected Papp) was 0.42.
For `CC(C)(Oc1ccc(C(=O)c2ccc(Cl)cc2)cc1)C(=O)O` [fenofibric acid], the “Detection of fenofibric acid (control of API degradation during lipolysis and sample storage)” value ([1]; UPLC-MS, all samples) was “no fenofibric acid could be detected”.
For Lucifer Yellow CH dilithium salt [LY], the “LY mass transfer AUC15-60 min” value ([3]; Fig. 2c, Acceptor Sink Buffer in receiver per legend, 30 min digestion sample) was “< LOQ”, the “LY mass transfer AUC15-60 min” value ([3]; Fig. 2c, Acceptor Sink Buffer in receiver per legend, dispersion sample of IIIB-MC LBF) was “< LOQ” and the “LY mass transfer AUC15-60 min” value ([3]; Fig. 2d, PB with 4% BSA in receiver per legend, 30 min digestion sample) was “< LOQ”. The “LY mass transfer AUC15-60 min” value ([3]; Fig. 2d, PB with 4% BSA in receiver per legend, dispersion sample of IIIB-MC LBF) was “< LOQ” and the “LY permeation through membrane” value [4] was “did not allow detectable levels”.
